Legend:
Assay in all cases: relative viability (nuclei count vs DMSO), 5 days (fraction); higher = more cells survive
Alpelisib = compound: Cc1nc(NC(=O)N2CCC[C@H]2C(N)=O)sc1-c1ccnc(C(C)(C)C(F)(F)F)c1 [Alpelisib]
In short: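 Lung cancer cell lines in 1536-well plates were kept overnight at 37 °C, then pinned with five library-drug doses (not always all listed) spaced by √10 on vehicle-anchored plates. After 5 days without medium change, cells were fixed, permeabilised and Hoechst-stained in one step, imaged at 4×, and nuclei were counted with MetaXpress. Viability is treated-well nuclei divided by vehicle-well nuclei, taken as the median over plates. Plates passed only with control CV below 25% and at least one doubling.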

OSI-027 + Bortezomib = compound: COc1cccc2cc(-c3nc([C@H]4CC[C@H](C(=O)O)CC4)n4ncnc(N)c34)[nH]c12 [OSI-027] + CC(C)C[C@H](NC(=O)[C@H](Cc1ccccc1)NC(=O)c1cnccn1)B(O)O [Bortezomib] (partner 0.002 µM)
In short: (§1)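 For relative viability, nuclei counts in treated wells were divided by those in vehicle wells. Lung cancer cell lines had been pin-tool dosed in 1536-well plates the day after seeding and cultured for 5 days, then fixed and stained in one step (final 0.05% Triton X-100, 1% formaldehyde, 1 ug/ml Hoechst) and imaged at 4×. Doses were one drug alone or a fixed anchor-drug dose plus five library-drug doses (not always all listed) in √10 steps, and values are duplicate-plate medians.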

OSI-027 + Linsitinib = compound: COc1cccc2cc(-c3nc([C@H]4CC[C@H](C(=O)O)CC4)n4ncnc(N)c34)[nH]c12 [OSI-027] + C[C@]1(O)C[C@@H](c2nc(-c3ccc4ccc(-c5ccccc5)nc4c3)c3c(N)nccn32)C1 [Linsitinib] (partner 1 µM)
In short: as §1

| Cell Line | relative viability (Alpelisib; 0.04 µM) | relative viability (Alpelisib; 0.1265 µM) | relative viability (Alpelisib; 0.4 µM) | relative viability (Alpelisib; 1.265 µM) | relative viability (Alpelisib; 2 µM, anchor plate) | relative viability (Alpelisib; 4 µM) | relative viability (OSI-027 + Bortezomib; first compound 0.01 µM) | relative viability (OSI-027 + Bortezomib; first compound 0.03162 µM) | relative viability (OSI-027 + Bortezomib; first compound 0.1 µM) | relative viability (OSI-027 + Bortezomib; first compound 0.3162 µM) | relative viability (OSI-027 + Bortezomib; first compound 1 µM) | relative viability (OSI-027 + Linsitinib; first compound 0.01 µM) | relative viability (OSI-027 + Linsitinib; first compound 0.03162 µM) | relative viability (OSI-027 + Linsitinib; first compound 0.1 µM) | relative viability (OSI-027 + Linsitinib; first compound 0.3162 µM) | relative viability (OSI-027 + Linsitinib; first compound 1 µM) |
| --- | --- | --- | --- | --- | --- | --- | --- | --- | --- | --- | --- | --- | --- | --- | --- | --- |
| NCI-H2405 | 1.02 | 0.965 | 0.973 | 0.824 | 0.749 | 0.703 | 0.982 | 1.04 | 0.872 | 0.866 | 0.425 | 0.871 | 0.81 | 0.702 | 0.404 | 0.393 |
| LCLC-103H | 0.972 | 0.956 | 0.959 | 0.779 | 0.969 | 0.749 | 1.24 | 1.16 | 1.13 | 0.928 | 1 | 0.994 | 0.968 | 1.07 | 0.906 | 1.05 |
| NCI-H322M | 0.879 | 0.961 | 0.918 | 0.698 | 0.786 | 0.682 | 1.23 | 1.24 | 1.13 | 0.983 | 0.986 | 0.805 | 0.778 | 0.787 | 0.589 | 0.868 |
| NCI-H23 | 0.94 | 0.798 | 0.913 | 0.739 | 0.78 | 0.706 | 0.967 | 0.834 | 0.944 | 1.02 | 0.656 | 0.517 | 0.549 | 0.452 | 0.237 | 0.212 |
| HCC-15 | 1.02 | 0.938 | 1.07 | 0.886 | 0.852 | 0.759 | 1.07 | 0.988 | 1 | 1.01 | 0.71 | 0.881 | 0.857 | 0.795 | 0.662 | 0.463 |
| NCI-H1437 | 1 | 0.948 | 1.06 | 0.864 | 0.965 | 0.89 | 0.43 | 0.409 | 0.538 | 0.487 | 0.258 | 0.962 | 0.6 | 0.702 | 0.292 | 0.155 |
| EBC-1 | 0.942 | 0.904 | 1.15 | 0.853 | 0.866 | 0.862 | 0.497 | 0.557 | 0.515 | 0.53 | 0.375 | 0.901 | 0.886 | 0.916 | 0.78 | 0.419 |
| A-427 | 0.98 | 0.886 | 0.965 | 0.871 | 1.09 | 0.911 | 1.13 | 0.965 | 0.967 | 0.803 | 0.578 | 1.15 | 1.08 | 1.05 | 0.746 | 0.882 |
| NCI-H1975 | 0.918 | 0.968 | 0.984 | 0.664 | 0.679 | 0.561 | 0.41 | 0.337 | 0.464 | 0.318 | 0.274 | 1.09 | 1.03 | 0.822 | 0.706 | 0.339 |
| SK-LU-1 | 1.07 | 0.977 | 1.03 | 0.855 | 0.922 | 0.812 | 1.01 | 1.26 | 0.75 | 0.655 | 0.404 | 1.06 | 0.83 | 0.63 | 0.406 | 0.306 |
| NCI-H520 | 0.891 | 0.935 | 1.11 | 0.725 | 0.945 | 0.503 | 0.62 | 0.394 | 0.459 | 0.179 | 0.225 | 1.08 | 0.931 | 0.888 | 0.614 | 0.311 |
| NCI-H1755 | 0.989 | 1.01 | 0.986 | 0.876 | 0.942 | 0.853 | 1 | 0.96 | 0.983 | 0.89 | 0.556 | 0.976 | 1.05 | 1.02 | 0.885 | 0.392 |
| CAL-12T | 0.999 | 0.989 | 1.09 | 0.963 | 1.14 | 0.955 | 0.814 | 1.02 | 0.713 | 0.754 | 0.729 | 0.704 | 0.753 | 0.724 | 0.445 | 0.353 |
| NCI-H1734 | 0.917 | 0.857 | 1 | 0.644 | 0.674 | 0.508 | 0.958 | 0.809 | 0.852 | 0.834 | 0.47 | 0.937 | 0.794 | 0.809 | 0.656 | 0.309 |
| NCI-H1563 | 0.942 | 0.971 | 0.948 | 0.768 | 0.966 | 0.84 | 0.822 | 0.872 | 0.781 | 0.741 | 0.722 | 1.13 | 1.21 | 1.1 | 0.929 | 0.677 |
| NCI-H650 | 0.877 | 0.825 | 0.96 | 0.752 | 1.14 | 0.738 | 0.738 | 1.05 | 0.431 | 0.549 | 0.406 | 0.701 | 0.892 | 0.492 | 0.442 | 0.334 |
| BEN | 0.99 | 0.913 | 1.15 | 1.01 | 1.04 | 0.847 | 0.653 | 0.83 | 0.488 | 0.379 | 0.389 | 0.923 | 0.613 | 0.627 | 0.384 | 0.271 |

| Cell Line | relative viability (Alpelisib; 0.04 µM) | relative viability (Alpelisib; 0.1265 µM) | relative viability (Alpelisib; 0.4 µM) | relative viability (Alpelisib; 1.265 µM) | relative viability (Alpelisib; 2 µM, anchor plate) | relative viability (Alpelisib; 4 µM) | relative viability (OSI-027 + Bortezomib; first compound 0.01 µM) | relative viability (OSI-027 + Bortezomib; first compound 0.03162 µM) | relative viability (OSI-027 + Bortezomib; first compound 0.1 µM) | relative viability (OSI-027 + Bortezomib; first compound 0.3162 µM) | relative viability (OSI-027 + Bortezomib; first compound 1 µM) | relative viability (OSI-027 + Linsitinib; first compound 0.01 µM) | relative viability (OSI-027 + Linsitinib; first compound 0.03162 µM) | relative viability (OSI-027 + Linsitinib; first compound 0.1 µM) | relative viability (OSI-027 + Linsitinib; first compound 0.3162 µM) | relative viability (OSI-027 + Linsitinib; first compound 1 µM) |
| --- | --- | --- | --- | --- | --- | --- | --- | --- | --- | --- | --- | --- | --- | --- | --- | --- |
| NCI-H647 | 0.917 | 0.925 | 1.06 | 0.757 | 1.18 | 0.832 | 0.992 | 0.981 | 1 | 0.884 | 0.432 | 1.29 | 1.2 | 0.944 | 0.855 | 0.496 |
| NCI-H661 | 0.973 | 1.02 | 1.01 | 0.924 | 0.719 | 0.909 | 0.811 | 0.734 | 0.802 | 0.666 | 0.395 | 0.511 | 0.334 | 0.521 | 0.364 | 0.269 |
| HCC-44 | 0.98 | 0.914 | 1.02 | 0.846 | 0.811 | 0.861 | 0.929 | 1 | 0.874 | 0.838 | 0.413 | 0.646 | 0.628 | 0.584 | 0.452 | 0.195 |
| NCI-H1792 | 0.89 | 0.724 | 0.819 | 0.636 | 0.728 | 0.383 | 1.03 | 0.688 | 0.858 | 0.899 | 0.212 | 0.466 | 0.237 | 0.394 | 0.229 | 0.22 |
| NCI-H2347 | 1.07 | 0.97 | 1.12 | 0.949 | 0.992 | 0.864 | 0.857 | 0.904 | 0.741 | 0.601 | 0.493 | 1.03 | 0.877 | 0.883 | 0.885 | 0.521 |
| LC-2-ad | 0.966 | 0.905 | 1.09 | 0.685 | 0.868 | 0.672 | 1.03 | 0.984 | 1.05 | 1.09 | 0.662 | 0.847 | 0.751 | 0.803 | 0.694 | 0.291 |
| COR-L 105 | 0.931 | 1 | 1.21 | 0.876 | 1.03 | 0.853 | 0.682 | 0.716 | 0.779 | 0.572 | 0.428 | 1.07 | 0.737 | 0.966 | 0.749 | 0.431 |
| NCI-H838 | 0.863 | 0.921 | 0.933 | 0.706 | 1.03 | 0.689 | 0.751 | 0.71 | 0.78 | 0.531 | 0.325 | 0.819 | 0.584 | 0.456 | 0.305 | 0.254 |
| COR-L23 | 0.959 | 1.09 | 1.08 | 0.837 | 0.739 | 0.786 | 1.16 | 0.923 | 1.07 | 1.13 | 0.298 | 1.02 | 0.837 | 0.792 | 0.549 | 0.181 |
| EMC-BAC-2 | 0.95 | 0.821 | 0.981 | 0.672 | 0.751 | 0.604 | 1.07 | 1.08 | 0.988 | 0.872 | 0.568 | 0.824 | 0.762 | 0.763 | 0.607 | 0.305 |
| NCI-H3122 | 0.981 | 1.02 | 1.02 | 0.968 | 0.759 | 0.744 | 1.11 | 1.04 | 1.11 | 1.02 | 0.87 | 1.04 | 1.04 | 1.07 | 0.763 | 0.289 |
| NCI-H2023 | 0.876 | 0.928 | 0.93 | 0.649 | 0.6 | 0.5 | 0.944 | 0.926 | 0.898 | 0.687 | 0.358 | 0.622 | 0.507 | 0.566 | 0.292 | 0.143 |
| H3255 | 1.03 | 0.936 | 1.09 | 0.755 | 0.698 | 0.743 | 0.825 | 0.761 | 0.619 | 0.545 | 0.534 | 0.943 | 1 | 0.929 | 0.825 | 0.452 |
| NCI-H2087 | 1.21 | 1.02 | 1.08 | 0.868 | 1 | 0.85 | 0.82 | 0.879 | 0.938 | 0.859 | 0.412 | 1.03 | 0.845 | 0.819 | 0.632 | 0.29 |
| RERF-LC-KJ | 0.94 | 0.914 | 1.01 | 0.824 | 0.844 | 0.87 | 1.18 | 0.948 | 1.03 | 0.808 | 0.511 | 0.839 | 0.776 | 0.655 | 0.503 | 0.376 |
| NCI-H2228 | 0.947 | 0.881 | 1.04 | 0.686 | 0.742 | 0.495 | 0.977 | 1.01 | 0.999 |  | 0.65 | 0.637 | 0.768 | 0.576 |  | 0.368 |
